Source: patent US9340590B2 (priority 2011, dated 2016)
Read-outs that look alike come from different tables or passages of the source. Positions of bridges follow the written chain, without caps; N, C: chain ends. Non-standard residues stand in square brackets, D forms with d. Residues, ends and D or L forms follow the SMILES beside them. *: point of attachment. Trp(1-Me) = Cn1cc(C[C@H](N)C(=O)O)c2ccccc21; Phg = N[C@H](C(=O)O)c1ccccc1; Pent4ynoyl = C#CCCC(=O)*; Abu = CC[C@H](N)C(=O)O

How the values were obtained:
Assay in all cases: cell-based
hNav1.7 = hNav1.7 (Homo sapiens, UniProt Q15858); assay type: cell-based; conditions: IonWorks Quattro, read-out: IWQ Use Nav1.7
hNav1.5 = hNav1.5 (Homo sapiens, UniProt Q14524); conditions: IonWorks Quattro, read-out: IWQ Use Nav1.5
hNav1.3 = hNav1.3 (Homo sapiens, UniProt Q9NY46); conditions: IonWorks Quattro, read-out: IWQ Use Nav1.3
[1] = use-dependent protocol, hNav1.7
[2] = use-dependent protocol, hNav1.5
[3] = use-dependent protocol, hNav1.3

Sequence of hNav1.7 (Q15858 whole entry, looked up): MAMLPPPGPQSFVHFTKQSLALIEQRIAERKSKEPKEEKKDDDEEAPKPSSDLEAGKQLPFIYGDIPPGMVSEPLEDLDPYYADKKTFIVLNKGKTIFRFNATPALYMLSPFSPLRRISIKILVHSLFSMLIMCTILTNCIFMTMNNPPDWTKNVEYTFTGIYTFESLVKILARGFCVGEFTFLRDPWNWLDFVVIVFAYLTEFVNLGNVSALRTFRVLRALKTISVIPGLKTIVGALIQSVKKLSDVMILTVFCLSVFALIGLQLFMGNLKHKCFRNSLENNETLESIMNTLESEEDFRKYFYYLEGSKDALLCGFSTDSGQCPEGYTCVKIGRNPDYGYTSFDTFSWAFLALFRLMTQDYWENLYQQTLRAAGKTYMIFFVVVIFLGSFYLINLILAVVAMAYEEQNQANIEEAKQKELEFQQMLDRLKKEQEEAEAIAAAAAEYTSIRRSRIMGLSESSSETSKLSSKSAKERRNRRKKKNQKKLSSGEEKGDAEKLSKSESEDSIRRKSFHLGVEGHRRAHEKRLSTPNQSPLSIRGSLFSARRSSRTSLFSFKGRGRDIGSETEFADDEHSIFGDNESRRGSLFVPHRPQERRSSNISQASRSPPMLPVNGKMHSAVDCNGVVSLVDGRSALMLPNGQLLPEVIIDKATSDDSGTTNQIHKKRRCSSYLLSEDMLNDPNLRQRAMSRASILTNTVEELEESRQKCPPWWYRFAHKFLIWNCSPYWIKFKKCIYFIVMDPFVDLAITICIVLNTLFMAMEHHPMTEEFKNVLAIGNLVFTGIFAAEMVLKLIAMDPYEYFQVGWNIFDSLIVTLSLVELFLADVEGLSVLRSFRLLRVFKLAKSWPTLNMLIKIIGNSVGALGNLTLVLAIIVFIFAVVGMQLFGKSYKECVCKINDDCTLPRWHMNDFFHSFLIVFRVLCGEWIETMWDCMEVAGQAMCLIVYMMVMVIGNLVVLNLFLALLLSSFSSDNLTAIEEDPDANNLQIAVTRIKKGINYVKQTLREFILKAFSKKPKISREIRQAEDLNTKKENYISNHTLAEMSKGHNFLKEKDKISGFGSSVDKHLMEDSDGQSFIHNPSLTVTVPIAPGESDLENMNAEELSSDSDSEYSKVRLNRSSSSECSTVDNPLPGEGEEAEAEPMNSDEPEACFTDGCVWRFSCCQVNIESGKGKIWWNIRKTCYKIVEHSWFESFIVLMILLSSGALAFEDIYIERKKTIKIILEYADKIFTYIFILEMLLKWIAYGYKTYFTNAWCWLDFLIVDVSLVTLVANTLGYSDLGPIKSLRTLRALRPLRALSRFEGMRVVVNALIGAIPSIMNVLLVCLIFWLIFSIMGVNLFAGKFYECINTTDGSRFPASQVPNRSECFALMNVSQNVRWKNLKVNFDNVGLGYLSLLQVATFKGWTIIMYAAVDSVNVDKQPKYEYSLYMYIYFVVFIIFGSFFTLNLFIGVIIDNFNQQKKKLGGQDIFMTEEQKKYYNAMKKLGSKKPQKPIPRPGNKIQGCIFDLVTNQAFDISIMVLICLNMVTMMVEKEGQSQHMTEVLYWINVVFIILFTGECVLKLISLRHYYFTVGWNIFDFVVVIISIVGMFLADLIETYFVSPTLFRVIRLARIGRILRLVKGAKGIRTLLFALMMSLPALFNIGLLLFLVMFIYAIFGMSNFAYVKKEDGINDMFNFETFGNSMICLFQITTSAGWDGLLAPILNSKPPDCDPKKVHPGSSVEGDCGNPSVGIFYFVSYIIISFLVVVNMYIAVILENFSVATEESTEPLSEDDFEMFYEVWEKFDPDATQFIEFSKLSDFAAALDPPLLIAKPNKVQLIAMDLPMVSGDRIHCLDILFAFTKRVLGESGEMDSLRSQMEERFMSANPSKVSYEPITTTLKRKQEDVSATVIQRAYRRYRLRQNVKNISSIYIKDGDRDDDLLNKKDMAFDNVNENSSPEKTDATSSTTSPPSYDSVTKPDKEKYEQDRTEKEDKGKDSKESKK
Sequence of hNav1.5 (Q14524 whole entry, looked up): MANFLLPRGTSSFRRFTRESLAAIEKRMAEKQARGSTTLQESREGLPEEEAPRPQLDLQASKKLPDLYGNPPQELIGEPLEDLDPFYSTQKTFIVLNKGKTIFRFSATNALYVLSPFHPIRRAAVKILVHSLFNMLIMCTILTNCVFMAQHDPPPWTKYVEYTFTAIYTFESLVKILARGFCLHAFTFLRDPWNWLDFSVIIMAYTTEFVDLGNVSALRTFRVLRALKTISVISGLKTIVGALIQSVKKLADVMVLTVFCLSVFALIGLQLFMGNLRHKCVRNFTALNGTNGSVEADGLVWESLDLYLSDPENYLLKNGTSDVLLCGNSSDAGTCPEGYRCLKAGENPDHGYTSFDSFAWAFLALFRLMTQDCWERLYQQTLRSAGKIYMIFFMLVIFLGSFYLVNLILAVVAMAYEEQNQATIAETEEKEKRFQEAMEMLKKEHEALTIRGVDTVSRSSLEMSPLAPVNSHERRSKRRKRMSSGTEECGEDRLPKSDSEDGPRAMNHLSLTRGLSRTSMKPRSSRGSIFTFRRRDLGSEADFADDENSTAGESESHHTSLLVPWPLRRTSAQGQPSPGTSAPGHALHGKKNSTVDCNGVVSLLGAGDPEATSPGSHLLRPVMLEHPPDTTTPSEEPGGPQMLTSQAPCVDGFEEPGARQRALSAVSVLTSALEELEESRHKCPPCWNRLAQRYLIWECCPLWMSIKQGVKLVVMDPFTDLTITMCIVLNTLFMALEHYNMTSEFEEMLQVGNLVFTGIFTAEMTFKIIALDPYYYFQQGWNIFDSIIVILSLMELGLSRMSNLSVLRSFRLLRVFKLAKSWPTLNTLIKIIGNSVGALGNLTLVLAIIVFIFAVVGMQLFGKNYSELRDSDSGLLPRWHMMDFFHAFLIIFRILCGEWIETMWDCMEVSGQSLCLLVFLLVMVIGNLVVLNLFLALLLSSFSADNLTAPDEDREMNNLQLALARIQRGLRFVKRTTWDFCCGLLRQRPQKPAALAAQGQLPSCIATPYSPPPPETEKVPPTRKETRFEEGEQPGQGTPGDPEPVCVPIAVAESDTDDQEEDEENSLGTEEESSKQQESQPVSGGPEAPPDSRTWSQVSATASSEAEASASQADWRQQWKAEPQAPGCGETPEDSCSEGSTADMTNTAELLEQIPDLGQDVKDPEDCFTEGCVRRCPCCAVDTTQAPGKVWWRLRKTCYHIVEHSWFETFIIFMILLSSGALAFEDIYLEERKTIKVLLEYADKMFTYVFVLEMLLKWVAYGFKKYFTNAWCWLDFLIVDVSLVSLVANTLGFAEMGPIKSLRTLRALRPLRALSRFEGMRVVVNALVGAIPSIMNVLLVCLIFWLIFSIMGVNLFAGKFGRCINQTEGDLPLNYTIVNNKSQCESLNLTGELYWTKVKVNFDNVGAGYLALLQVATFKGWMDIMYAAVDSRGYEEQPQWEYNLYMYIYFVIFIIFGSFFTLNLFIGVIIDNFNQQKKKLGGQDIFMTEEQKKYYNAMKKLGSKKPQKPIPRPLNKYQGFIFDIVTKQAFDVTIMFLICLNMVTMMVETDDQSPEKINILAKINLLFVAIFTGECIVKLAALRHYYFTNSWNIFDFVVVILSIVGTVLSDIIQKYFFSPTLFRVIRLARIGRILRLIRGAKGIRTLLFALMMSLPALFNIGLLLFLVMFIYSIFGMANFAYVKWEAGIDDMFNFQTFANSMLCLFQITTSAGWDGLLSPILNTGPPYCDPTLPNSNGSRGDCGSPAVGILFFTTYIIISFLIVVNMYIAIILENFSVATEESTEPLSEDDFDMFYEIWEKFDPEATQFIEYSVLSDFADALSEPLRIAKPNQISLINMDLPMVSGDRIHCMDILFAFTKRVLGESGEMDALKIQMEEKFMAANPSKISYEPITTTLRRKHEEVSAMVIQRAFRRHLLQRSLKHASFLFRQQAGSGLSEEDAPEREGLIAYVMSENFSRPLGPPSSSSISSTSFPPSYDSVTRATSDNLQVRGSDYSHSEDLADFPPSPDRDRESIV

CC[C@H](C)[C@@H]1NC(=O)[C@@H]2CSSC[C@@H]3NC(=O)[C@H](C(C)C)NC(=O)[C@H](CC(C)C)NC(=O)[C@H](CC(N)=O)NC(=O)[C@@H]4CCCN4C(=O)[C@H](CCCNC(=N)N)NC(=O)[C@H](CSSC[C@H](NC(=O)[C@@H](N)CC(=O)O)C(=O)N[C@@H](CC(C)C)C(=O)NCC(=O)N[C@@H](Cc4cccs4)C(=O)N[C@@H](CCSC)C(=O)N[C@@H](CCCNC(=N)N)C(=O)N[C@@H](CCCCN)C(=O)N2)NC(=O)[C@H](CSSC[C@@H](C(=O)N[C@@H](CCCCN)C(=O)N[C@@H](Cc2ccc(O)cc2)C(=O)N[C@H](C(=O)N[C@@H](Cc2ccccc2)C(N)=O)C(C)C)NC(=O)[C@H](Cc2c[nH]c4ccccc24)NC(=O)[C@H](CCCCN)NC(=O)[C@H](Cc2c[nH]cn2)NC(=O)[C@H]([C@@H](C)O)NC(=O)[C@H](CCCNC(=N)N)NC(=O)[C@H](CO)NC3=O)NC(=O)[C@H](CCCCN)NC(=O)[C@H](CC(=O)O)NC(=O)[C@H](CC(N)=O)NC(=O)[C@H](CC(=O)O)NC(=O)[C@@H]2CCCN2C1=O [compound 682]
IC50 (hNav1.7; [1]): 110 nM
IC50 (hNav1.5; [2]): > 5000 nM
IC50 (hNav1.3; [3]): 280 nM

CC[C@H](C)[C@@H]1NC(=O)[C@@H]2CSSC[C@@H]3NC(=O)[C@H](C(C)C)NC(=O)[C@H](CC(C)C)NC(=O)[C@H](CC(N)=O)NC(=O)[C@@H]4CCCN4C(=O)[C@H](CCCNC(=N)N)NC(=O)[C@H](CSSC[C@H](NC(=O)[C@@H](N)CC(=O)O)C(=O)N[C@@H](CC(C)C)C(=O)NCC(=O)N[C@@H](Cc4ccccc4)C(=O)N[C@@H](CCSC)C(=O)N[C@@H](CCCNC(=N)N)C(=O)N[C@@H](CCCCN)C(=O)N2)NC(=O)[C@H](CSSC[C@@H](C(=O)N[C@@H](CCCCN)C(=O)N[C@@H](Cc2ccc(O)cc2)C(=O)N[C@H](C(=O)N[C@@H](Cc2ccccc2)C(N)=O)c2ccccc2)NC(=O)[C@H](Cc2c[nH]c4ccccc24)NC(=O)[C@H](CCCCN)NC(=O)[C@H](Cc2c[nH]cn2)NC(=O)[C@H]([C@@H](C)O)NC(=O)[C@H](CCCNC(=N)N)NC(=O)[C@H](CO)NC3=O)NC(=O)[C@H](CCCCN)NC(=O)[C@H](CC(=O)O)NC(=O)[C@H](CC(N)=O)NC(=O)[C@H](CC(=O)O)NC(=O)[C@@H]2CCCN2C1=O [compound 393] (H-DCLGFMRKCIPDNDKCCRPNLVCSRTHKWCKY[Phg]F-NH2; disulfide 2-17, 9-23, 16-30)
IC50 (hNav1.7; Table 26, use, […]): 20 nM
IC50 (hNav1.5; Table 26, use, […]): 7630 nM
IC50 (hNav1.3; Table 26, use, […]): 40 nM

CC[C@H](C)[C@@H]1NC(=O)[C@@H]2CSSC[C@@H]3NC(=O)[C@H](C(C)C)NC(=O)[C@H](CC(C)C)NC(=O)[C@H](CC(N)=O)NC(=O)[C@@H]4CCCN4C(=O)[C@H](CCCNC(=N)N)NC(=O)[C@H](CSSC[C@H](NC(=O)[C@@H](N)CC(=O)O)C(=O)N[C@@H](CC(C)C)C(=O)NCC(=O)N[C@@H](C)C(=O)N[C@@H](CCSC)C(=O)N[C@@H](CCCNC(=N)N)C(=O)N[C@@H](CCCCN)C(=O)N2)NC(=O)[C@H](CSSC[C@@H](C(=O)N[C@@H](CCCCN)C(=O)N[C@@H](Cc2cn(C)c4ccccc24)C(=O)N[C@H](C(=O)N[C@@H](Cc2ccccc2)C(N)=O)C(C)C)NC(=O)[C@H](Cc2c[nH]c4ccccc24)NC(=O)[C@H](CCCCN)NC(=O)[C@H](Cc2c[nH]cn2)NC(=O)[C@H]([C@@H](C)O)NC(=O)[C@H](CCCNC(=N)N)NC(=O)[C@H](CO)NC3=O)NC(=O)[C@H](CCCCN)NC(=O)[C@H](CC(=O)O)NC(=O)[C@H](CC(N)=O)NC(=O)[C@H](CC(=O)O)NC(=O)[C@@H]2CCCN2C1=O [compound 692] (H-DCLGAMRKCIPDNDKCCRPNLVCSRTHKWCK[Trp(1-Me)]VF-NH2; disulfide 2-17, 9-23, 16-30)
IC50 (hNav1.7; [1]): 180 nM
IC50 (hNav1.5; [2]): > 5000 nM
IC50 (hNav1.3; [3]): 630 nM

C#CCCC(=O)N[C@@H](CC(=O)O)C(=O)N[C@H]1CSSC[C@@H]2NC(=O)[C@@H]3CSSC[C@@H](C(=O)N[C@@H](CCCCN)C(=O)N[C@@H](Cc4ccc(O)cc4)C(=O)N[C@H](C(=O)N[C@@H](Cc4ccccc4)C(N)=O)C(C)C)NC(=O)[C@H](Cc4c[nH]c5ccccc45)NC(=O)[C@H](CCCNC(=N)N)NC(=O)[C@H](Cc4c[nH]cn4)NC(=O)[C@H]([C@@H](C)O)NC(=O)[C@H](CCCNC(=N)N)NC(=O)[C@H](CO)NC(=O)[C@H](CSSC[C@H](NC(=O)[C@H](CCCCN)NC(=O)[C@H](CCCNC(=N)N)NC(=O)[C@H](CC(C)C)NC(=O)[C@H](CC)NC(=O)CNC(=O)[C@H](CC(C)C)NC1=O)C(=O)N[C@@H]([C@@H](C)CC)C(=O)N1CCC[C@H]1C(=O)N[C@@H](CC(=O)O)C(=O)N[C@@H](CC)C(=O)N[C@@H](CC(=O)O)C(=O)N[C@@H](CCCCN)C(=O)N3)NC(=O)[C@H](C(C)C)NC(=O)[C@H](CC(C)C)NC(=O)[C@H](CC(N)=O)NC(=O)[C@@H]1CCCN1C(=O)[C@H](CCCNC(=N)N)NC2=O [compound 807] (Pent4ynoyl-DCLG[Abu]LRKCIPD[Abu]DKCCRPNLVCSRTHRWCKYVF-NH2; disulfide 2-17, 9-23, 16-30)
IC50 (hNav1.7; use-dependent block, hNav1.7): 540 nM
IC50 (hNav1.5; use-dependent block, hNav1.5): 36800 nM
IC50 (hNav1.3; use-dependent block, hNav1.3): 900 nM

CC[C@H](C)[C@@H]1NC(=O)[C@@H]2CSSC[C@@H]3NC(=O)[C@H](C(C)C)NC(=O)[C@H](CC(C)C)NC(=O)[C@H](CC(N)=O)NC(=O)[C@@H]4CCCN4C(=O)[C@H](CCCNC(=N)N)NC(=O)[C@H](CSSC[C@H](NC(=O)[C@@H](N)CC(=O)O)C(=O)N[C@@H](CC(C)C)C(=O)NCC(=O)N[C@@H](C)C(=O)N[C@@H](Cc4ccccc4)C(=O)N[C@@H](CCCNC(=N)N)C(=O)N[C@@H](CCCCN)C(=O)N2)NC(=O)[C@H](CSSC[C@@H](C(=O)N[C@@H](CCCCN)C(=O)N[C@@H](Cc2ccc(O)cc2)C(=O)N[C@H](C(=O)N[C@@H](Cc2ccccc2)C(=O)O)C(C)C)NC(=O)[C@H](Cc2c[nH]c4ccccc24)NC(=O)[C@H](CCCNC(=N)N)NC(=O)[C@H](Cc2c[nH]cn2)NC(=O)[C@H]([C@@H](C)O)NC(=O)[C@H](CCCNC(=N)N)NC(=O)[C@H](CO)NC3=O)NC(=O)[C@H](CCCCN)NC(=O)[C@H](CC(=O)O)NC(=O)[C@H](CCC(=O)O)NC(=O)[C@H](CC(=O)O)NC(=O)[C@@H]2CCCN2C1=O [compound 838]
IC50 (hNav1.7; use-dependent block, hNav1.7): > 5000 nM
IC50 (hNav1.5; use-dependent block, hNav1.5): > 5000 nM
IC50 (hNav1.3; use-dependent block, hNav1.3): 1900 nM

CC[C@H](C)[C@@H]1NC(=O)[C@@H]2CSSC[C@@H]3NC(=O)[C@H](C(C)C)NC(=O)[C@H](CC(C)C)NC(=O)[C@H](CC(N)=O)NC(=O)[C@@H]4CCCN4C(=O)[C@H](CCCNC(=N)N)NC(=O)[C@H](CSSC[C@H](NC(=O)[C@@H](N)CC(=O)O)C(=O)N[C@@H](CC(C)C)C(=O)NCC(=O)N[C@@H](C)C(=O)N[C@@H](Cc4ccc(O)cc4)C(=O)N[C@@H](CCCNC(=N)N)C(=O)N[C@@H](CCCCN)C(=O)N2)NC(=O)[C@H](CSSC[C@@H](C(=O)N[C@@H](CCCCN)C(=O)N[C@@H](Cc2ccc(O)cc2)C(=O)N[C@H](C(=O)N[C@@H](Cc2ccccc2)C(N)=O)C(C)C)NC(=O)[C@H](Cc2c[nH]c4ccccc24)NC(=O)[C@H](CCCCN)NC(=O)[C@H](Cc2c[nH]cn2)NC(=O)[C@H]([C@@H](C)O)NC(=O)[C@H](CCCNC(=N)N)NC(=O)[C@H](CO)NC3=O)NC(=O)[C@H](CCCCN)NC(=O)[C@H](CC(=O)O)NC(=O)[C@H](CC(N)=O)NC(=O)[C@H](CC(=O)O)NC(=O)[C@@H]2CCCN2C1=O [compound 698] (H-DCLGAYRKCIPDNDKCCRPNLVCSRTHKWCKYVF-NH2; disulfide 2-17, 9-23, 16-30)
IC50 (hNav1.7; [1]): 4400 nM
IC50 (hNav1.5; [2]): > 5000 nM
IC50 (hNav1.3; [3]): > 5000 nM

CC[C@H](C)[C@@H]1NC(=O)[C@@H]2CSSC[C@@H]3NC(=O)[C@H](C(C)C)NC(=O)[C@H](CC(C)C)NC(=O)[C@H](CC(N)=O)NC(=O)[C@@H]4CCCN4C(=O)[C@H](CCCNC(=N)N)NC(=O)[C@H](CSSC[C@H](NC(=O)[C@@H](N)CC(=O)O)C(=O)N[C@@H](CC(C)C)C(=O)NCC(=O)N[C@@H](Cc4ccccc4)C(=O)N[C@@H](CCSC)C(=O)N[C@@H](CCCNC(=N)N)C(=O)N[C@@H](CCCCN)C(=O)N2)NC(=O)[C@H](CSSC[C@@H](C(=O)N[C@@H](CCCCN)C(=O)N[C@@H](Cc2ccc(O)cc2)C(=O)N[C@H](C(=O)N[C@@H](Cc2ccccc2)C(N)=O)C(C)C)NC(=O)[C@H](Cc2c[nH]c4ccccc24)NC(=O)[C@H](CCCCN)NC(=O)[C@H](Cc2c[nH]cn2)NC(=O)[C@H]([C@@H](C)O)NC(=O)[C@H](CCC(=O)O)NC(=O)[C@H](CO)NC3=O)NC(=O)[C@H](CCCCN)NC(=O)[C@H](CC(=O)O)NC(=O)[C@H](CC(N)=O)NC(=O)[C@H](CC(=O)O)NC(=O)[C@@H]2CCCN2C1=O [compound 151] (H-DCLGFMRKCIPDNDKCCRPNLVCSETHKWCKYVF-NH2; disulfide 2-17, 9-23, 16-30)
IC50 (hNav1.7; Use): 710 nM
IC50 (hNav1.5; Use): 14000 nM
IC50 (hNav1.3; Use): 1170 nM

CSCC[C@@H]1NC(=O)[C@H](Cc2ccccc2)NC(=O)CNC(=O)[C@H](CC(C)C)NC(=O)[C@@H](NC(=O)[C@@H](N)CC(=O)O)CSSC[C@@H]2NC(=O)[C@@H]3CSSC[C@@H](C(=O)N[C@@H](CCCCN)C(=O)N[C@@H](Cc4ccc(O)cc4)C(=O)N[C@H](C(=O)N[C@@H](Cc4ccccc4)C(N)=O)C(C)C)NC(=O)[C@H](Cc4c[nH]c5ccccc45)NC(=O)[C@H](CCCCN)NC(=O)[C@H](Cc4cnc[nH]4)NC(=O)[C@H]([C@@H](C)O)NC(=O)[C@H](CCCNC(=N)N)NC(=O)[C@H](CO)NC(=O)[C@H](CSSC[C@H](NC(=O)[C@H](CCCCN)NC(=O)[C@H](CCCNC(=N)N)NC1=O)C(=O)N[C@@H](CCCCN)C(=O)N1CCC[C@H]1C(=O)N[C@@H](CC(=O)O)C(=O)N[C@@H](CC(N)=O)C(=O)N[C@@H](CC(=O)O)C(=O)N[C@@H](CCCCN)C(=O)N3)NC(=O)[C@H](C(C)C)NC(=O)[C@H](CC(C)C)NC(=O)[C@H](CC(N)=O)NC(=O)[C@@H]1CCCN1C(=O)[C@H](CCCNC(=N)N)NC2=O [compound 41] (H-DCLGFMRKCKPDNDKCCRPNLVCSRTHKWCKYVF-NH2; disulfide 2-17, 9-23, 16-30)
IC50 (hNav1.7; Use): 240 nM
IC50 (hNav1.5; Use): 9000 nM
IC50 (hNav1.3; Use): 150 nM
